# Results: ChEMBL document CHEMBL4680155, “One-pot synthesis and molecular docking of some new spiropyranindol-2-one derivatives as immunomodulatory agents and in vitro antimicrobial potential with DNA gyrase inhibitor” (Eur J Med Chem, 2020)
# Columns and labels:
# Salmonella typhimurium [1] = experiment: Antibacterial activity against Salmonella typhi ATCC 6539 assessed as reduction in bacterial growth incubated for 1 day by paper disk diffusion method; type: functional, Salmonella enterica subsp. enterica serovar Typhimurium; conditions: Salmonella enterica, ATCC 6539, 24 h
# Escherichia coli [2] = experiment: Antibacterial activity against multidrug resistant Escherichia coli ATCC BAA-196 assessed as diameter of inhibition zone at 0.5 mg/ml incubated for 24 hrs by agar diffusion method; type: functional; conditions: read-out: DIZ
# Neutrophil = experiment: Immunomodulatory activity in human neutrophils infected with bacteria assessed as increase in bacterial killing by measuring reduced NBT incubated for 30 mins by NBT dye based spectrophotometry; type: functional; parameters: concentration or dose not given beside the values; conditions: 0.5 h
# Enterococcus faecalis [3] = experiment: Bactericidal activity against Enterococcus faecalis ATCC 29212 incubated for 24 hrs followed by transferring to freshly prepared broth medium and measured after 24 hrs by broth microdilution assay; type: functional; conditions: time 48 hrs
# Candida albicans [4] = experiment: Fungicidal activity against Candida albicans ATCC 10231 incubated for 24 hrs followed by transferring to freshly prepared broth medium and measured after 24 hrs by broth microdilution assay; type: functional; conditions: time 48 hrs
# Staphylococcus aureus [5] = experiment: Antibacterial activity against multidrug resistant Staphylococcus aureus ATCC 33591 assessed as diameter of inhibition zone at 0.5 mg/ml incubated for 24 hrs by agar diffusion method; type: functional; conditions: read-out: DIZ
# Staphylococcus aureus [6] = experiment: Antibacterial activity against multidrug resistant Staphylococcus aureus ATCC 43300 assessed as diameter of inhibition zone at 0.5 mg/ml incubated for 24 hrs by agar diffusion method; type: functional; conditions: read-out: DIZ
# Escherichia coli [7] = experiment: Bactericidal activity against Escherichia coli ATCC BAA-196 incubated for 24 hrs followed by transferring to freshly prepared broth medium and measured after 24 hrs by broth microdilution assay; type: functional; conditions: time 48 hrs
# Enterococcus faecalis [8] = experiment: Antibacterial activity against Enterococcus faecalis ATCC 29212 assessed as reduction in bacterial growth incubated for 1 day by paper disk diffusion method; type: functional; conditions: ATCC 29212, 24 h
# Candida albicans [9] = experiment: Antifungal activity against Candida albicans ATCC 10231 assessed as reduction in bacterial growth incubated for 1 day by paper disk diffusion method; type: functional; conditions: ATCC 10231, 24 h
# Escherichia coli [10] = experiment: Antibacterial activity against multidrug resistant Escherichia coli ATCC BAA-196 assessed as reduction in bacterial growth incubated for 1 day by paper disk diffusion method; type: functional; conditions: ATCC BAA-196, 24 h
# Aspergillus brasiliensis [11] = experiment: Fungicidal activity against Aspergillus brasiliensis ATCC 16404 incubated for 72 hrs followed by transferring to freshly prepared broth medium and measured after 24 hrs by broth microdilution assay; type: functional; conditions: time 96 hrs
# Escherichia coli [12] = experiment: Antibacterial activity against Escherichia coli ATCC 25922 assessed as reduction in bacterial growth incubated for 1 day by paper disk diffusion method; type: functional; conditions: ATCC 25922, 24 h
# Enterococcus faecalis [13] = experiment: Antibacterial activity against Enterococcus faecalis ATCC 29212 assessed as diameter of inhibition zone at 0.5 mg/ml incubated for 24 hrs by agar diffusion method; type: functional; conditions: read-out: DIZ
# Pseudomonas aeruginosa [14] = experiment: Bactericidal activity against Pseudomonas aeruginosa ATCC BAA-2111 incubated for 24 hrs followed by transferring to freshly prepared broth medium and measured after 24 hrs by broth microdilution assay; type: functional; conditions: time 48 hrs
# Pseudomonas aeruginosa [15] = experiment: Antibacterial activity against multidrug resistant Pseudomonas aeruginosa ATCC BAA-2111 assessed as reduction in bacterial growth incubated for 1 day by paper disk diffusion method; type: functional; conditions: ATCC BAA-2111, 24 h
# Staphylococcus aureus [16] = experiment: Bactericidal activity against Staphylococcus aureus ATCC 29213 incubated for 24 hrs followed by transferring to freshly prepared broth medium and measured after 24 hrs by broth microdilution assay; type: functional; conditions: time 48 hrs
# Aspergillus brasiliensis [17] = experiment: Antifungal activity against Aspergillus brasiliensis ATCC 16404 assessed as diameter of inhibition zone at 0.5 mg/ml incubated for 72 hrs by agar diffusion method; type: functional; conditions: read-out: DIZ
# Staphylococcus aureus [18] = experiment: Antibacterial activity against Staphylococcus aureus ATCC 29213 assessed as diameter of inhibition zone at 0.5 mg/ml incubated for 24 hrs by agar diffusion method; type: functional; conditions: read-out: DIZ
# Escherichia coli [19] = experiment: Bactericidal activity against Escherichia coli ATCC 25922 incubated for 24 hrs followed by transferring to freshly prepared broth medium and measured after 24 hrs by broth microdilution assay; type: functional; conditions: time 48 hrs
# Candida albicans [20] = experiment: Antifungal activity against Candida albicans ATCC 10231 assessed as diameter of inhibition zone at 0.5 mg/ml incubated for 24 hrs by agar diffusion method; type: functional; conditions: read-out: DIZ
# Salmonella typhimurium [21] = experiment: Bactericidal activity against Salmonella typhi ATCC 6539 incubated for 24 hrs followed by transferring to freshly prepared broth medium and measured after 24 hrs by broth microdilution assay; type: functional, Salmonella enterica subsp. enterica serovar […]; conditions: Salmonella enterica, time 48 hrs
# Salmonella typhimurium [22] = experiment: Antibacterial activity against Salmonella typhi ATCC 6539 assessed as diameter of inhibition zone at 0.5 mg/ml incubated for 24 hrs by agar diffusion method; type: functional, Salmonella enterica subsp. enterica serovar Typhimurium; conditions: Salmonella enterica, read-out: DIZ
# Staphylococcus aureus [23] = experiment: Bactericidal activity against Staphylococcus aureus ATCC 33591 incubated for 24 hrs followed by transferring to freshly prepared broth medium and measured after 24 hrs by broth microdilution assay; type: functional; conditions: time 48 hrs
# Aspergillus brasiliensis [24] = experiment: Antifungal activity against Aspergillus brasiliensis ATCC 16404 assessed as reduction in bacterial growth incubated for 3 days by paper disk diffusion method; type: functional; conditions: ATCC 16404, 72 h, time 3 day
# DNA gyrase = DNA gyrase (Staphylococcus aureus, UniProt P0A0K8+P20831); experiment: Inhibition of Staphylococcus aureus DNA gyrase using relaxed pBR322 DNA as substrate incubated for 45 mins by agarose gel electrophoresis method; type: protein-complex assay
# Sequence of DNA gyrase (P0A0K8 whole entry, the tested form may be a part): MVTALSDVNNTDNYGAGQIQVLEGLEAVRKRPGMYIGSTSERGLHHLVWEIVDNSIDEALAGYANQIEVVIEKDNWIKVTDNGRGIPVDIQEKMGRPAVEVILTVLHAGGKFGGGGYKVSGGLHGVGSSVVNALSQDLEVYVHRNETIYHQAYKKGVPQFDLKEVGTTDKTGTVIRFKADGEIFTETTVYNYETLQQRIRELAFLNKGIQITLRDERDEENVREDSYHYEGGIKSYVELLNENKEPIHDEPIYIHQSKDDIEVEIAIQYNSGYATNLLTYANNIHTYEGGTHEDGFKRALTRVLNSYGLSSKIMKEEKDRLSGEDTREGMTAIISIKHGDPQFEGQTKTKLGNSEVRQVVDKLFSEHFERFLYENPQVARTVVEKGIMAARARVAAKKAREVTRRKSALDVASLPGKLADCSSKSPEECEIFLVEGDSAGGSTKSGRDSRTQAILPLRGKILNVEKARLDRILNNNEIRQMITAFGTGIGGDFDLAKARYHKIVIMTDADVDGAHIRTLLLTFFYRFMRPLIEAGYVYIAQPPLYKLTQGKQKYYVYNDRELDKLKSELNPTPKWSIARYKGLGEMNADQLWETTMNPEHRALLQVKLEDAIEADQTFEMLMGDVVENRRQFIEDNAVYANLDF
# Sequence of DNA gyrase (P20831 whole entry, the tested form may be a part): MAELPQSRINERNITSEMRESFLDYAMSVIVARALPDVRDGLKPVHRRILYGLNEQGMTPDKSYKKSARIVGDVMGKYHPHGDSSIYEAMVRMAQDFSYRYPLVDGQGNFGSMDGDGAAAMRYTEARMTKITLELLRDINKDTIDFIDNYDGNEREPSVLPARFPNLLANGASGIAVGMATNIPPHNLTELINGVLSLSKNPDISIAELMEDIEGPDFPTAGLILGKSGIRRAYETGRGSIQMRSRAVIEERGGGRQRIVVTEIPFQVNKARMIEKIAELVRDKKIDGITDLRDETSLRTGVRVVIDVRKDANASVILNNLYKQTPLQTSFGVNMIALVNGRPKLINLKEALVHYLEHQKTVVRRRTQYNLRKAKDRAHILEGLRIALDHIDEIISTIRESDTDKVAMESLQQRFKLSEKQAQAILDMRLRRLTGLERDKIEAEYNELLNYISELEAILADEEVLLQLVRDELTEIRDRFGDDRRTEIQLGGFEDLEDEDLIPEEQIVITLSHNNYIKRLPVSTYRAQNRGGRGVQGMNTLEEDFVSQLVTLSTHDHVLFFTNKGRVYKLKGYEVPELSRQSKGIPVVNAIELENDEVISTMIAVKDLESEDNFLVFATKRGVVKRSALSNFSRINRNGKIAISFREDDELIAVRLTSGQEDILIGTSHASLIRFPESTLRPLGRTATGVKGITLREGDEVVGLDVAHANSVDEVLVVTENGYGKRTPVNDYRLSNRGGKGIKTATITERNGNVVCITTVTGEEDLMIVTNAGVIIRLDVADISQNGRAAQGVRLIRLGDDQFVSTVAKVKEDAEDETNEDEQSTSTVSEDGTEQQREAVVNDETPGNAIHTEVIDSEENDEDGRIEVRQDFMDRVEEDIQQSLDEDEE
# Staphylococcus aureus [25] = experiment: Antibacterial activity against multidrug resistant Staphylococcus aureus ATCC 33591 assessed as reduction in bacterial growth incubated for 1 day by paper disk diffusion method; type: functional; conditions: ATCC 33591, 24 h
# Staphylococcus aureus [26] = experiment: Antibacterial activity against multidrug resistant Staphylococcus aureus ATCC 43300 assessed as reduction in bacterial growth incubated for 1 day by paper disk diffusion method; type: functional; conditions: ATCC 43300, 24 h
# Staphylococcus aureus [27] = experiment: Antibacterial activity against Staphylococcus aureus ATCC 29213 assessed as reduction in bacterial growth incubated for 1 day by paper disk diffusion method; type: functional; conditions: ATCC 29213, 24 h
# Escherichia coli [28] = experiment: Antibacterial activity against Escherichia coli ATCC 25922 assessed as diameter of inhibition zone at 0.5 mg/ml incubated for 24 hrs by agar diffusion method; type: functional; conditions: read-out: DIZ
# Pseudomonas aeruginosa [29] = experiment: Antibacterial activity against multidrug resistant Pseudomonas aeruginosa ATCC BAA-2111 assessed as diameter of inhibition zone at 0.5 mg/ml incubated for 24 hrs by agar diffusion method; type: functional; conditions: read-out: DIZ
# Staphylococcus aureus [30] = experiment: Bactericidal activity against Staphylococcus aureus ATCC 43300 incubated for 24 hrs followed by transferring to freshly prepared broth medium and measured after 24 hrs by broth microdilution assay; type: functional; conditions: time 48 hrs
Structure (SMILES),MIC (Salmonella typhimurium [1]) [µg/mL],zone of inhibition at 500 µg/mL (Escherichia coli [2]) [mm],Activity (Neutrophil) [%],MBC (Enterococcus faecalis [3]) [µg/mL],MFC (Candida albicans [4]) [µg/mL],zone of inhibition at 500 µg/mL (Staphylococcus aureus [5]) [mm],zone of inhibition at 500 µg/mL (Staphylococcus aureus [6]) [mm],MBC (Escherichia coli [7]) [µg/mL],MIC (Enterococcus faecalis [8]) [µg/mL],MIC (Candida albicans [9]) [µg/mL],MIC (Escherichia coli [10]) [µg/mL],MFC (Aspergillus brasiliensis [11]) [µg/mL],MIC (Escherichia coli [12]) [µg/mL],zone of inhibition at 500 µg/mL (Enterococcus faecalis [13]) [mm],MBC (Pseudomonas aeruginosa [14]) [µg/mL],MIC (Pseudomonas aeruginosa [15]) [µg/mL],MBC (Staphylococcus aureus [16]) [µg/mL],zone of inhibition at 500 µg/mL (Aspergillus brasiliensis [17]) [mm],zone of inhibition at 500 µg/mL (Staphylococcus aureus [18]) [mm],MBC (Escherichia coli [19]) [µg/mL],also measured
CCOC(=O)C1=C(N)OC(c2ccccc2)=C(C(=O)OCC)C12C(=O)Nc1ccc(S(=O)(=O)N3CCCCC3)cc12 (stereo unspecified),15.6,23,139.3,15.6,21.9,22,22,5.32,7.81,15.6,4.44,115,8.88,22,8.84,5.2,150,17,21,11.5,zone of inhibition at 500 µg/mL (Candida albicans [20]): 21 mm; MBC (Salmonella typhimurium [21]): 21.9 µg/mL; zone of inhibition at 500 µg/mL (Salmonella typhimurium [22]): 21 mm; MBC (Staphylococcus aureus [23]): 9.37 µg/mL; MIC (Aspergillus brasiliensis [24]): 71.8 µg/mL; IC50 (DNA gyrase): 23.2 µM; MIC (Staphylococcus aureus [25]): 6.25 µg/mL; MIC (Staphylococcus aureus [26]): 6.25 µg/mL; MIC (Staphylococcus aureus [27]): 88.3 µg/mL; zone of inhibition at 500 µg/mL (Escherichia coli [28]): 23 mm; zone of inhibition at 500 µg/mL (Pseudomonas aeruginosa [29]): 22 mm; MBC (Staphylococcus aureus [30]): 10 µg/mL
CC(=O)C1=C(c2ccccc2)OC(N)=C(C#N)C12C(=O)Nc1ccc(S(=O)(=O)N3CCOCC3)cc12 (stereo unspecified),62.5,23,123.5,20,31.2,26,25,5.85,12.5,15.6,6.25,108,12.5,26,6.66,4.44,23.1,20,24,21.2,zone of inhibition at 500 µg/mL (Candida albicans [20]): 23 mm; MBC (Salmonella typhimurium [21]): 81.2 µg/mL; zone of inhibition at 500 µg/mL (Salmonella typhimurium [22]): 22 mm; MBC (Staphylococcus aureus [23]): 1.94 µg/mL; MIC (Aspergillus brasiliensis [24]): 71.8 µg/mL; IC50 (DNA gyrase): 24.8 µM; MIC (Staphylococcus aureus [25]): 0.97 µg/mL; MIC (Staphylococcus aureus [26]): 0.97 µg/mL; MIC (Staphylococcus aureus [27]): 17.8 µg/mL; zone of inhibition at 500 µg/mL (Escherichia coli [28]): 23 mm; zone of inhibition at 500 µg/mL (Pseudomonas aeruginosa [29]): 22 mm; MBC (Staphylococcus aureus [30]): 145 µg/mL
CC(=O)C1=C(c2ccccc2)OC(N)=C(C#N)C12C(=O)Nc1ccc(S(=O)(=O)N3CCCCC3)cc12 (stereo unspecified),62.5,27,972,43.7,31.2,26,25,1.55,31.5,15.6,0.97,150,17.8,23,3.9,1.95,58.6,19,24,28.4,zone of inhibition at 500 µg/mL (Candida albicans [20]): 23 mm; MBC (Salmonella typhimurium [21]): 87.5 µg/mL; zone of inhibition at 500 µg/mL (Salmonella typhimurium [22]): 22 mm; MBC (Staphylococcus aureus [23]): 1.56 µg/mL; MIC (Aspergillus brasiliensis [24]): 88.3 µg/mL; IC50 (DNA gyrase): 18.1 µM; MIC (Staphylococcus aureus [25]): 0.78 µg/mL; MIC (Staphylococcus aureus [26]): 0.97 µg/mL; MIC (Staphylococcus aureus [27]): 35.5 µg/mL; zone of inhibition at 500 µg/mL (Escherichia coli [28]): 22 mm; zone of inhibition at 500 µg/mL (Pseudomonas aeruginosa [29]): 25 mm; MBC (Staphylococcus aureus [30]): 1.94 µg/mL
